We go through 98 molecules from ChEMBL document CHEMBL3507680, “University of Dundee, Gates Library screen for HepG2 cell viability”.

Molecules are shown by their SMILES.

The series in a line: Human HepG2 cell viability assay in 384 well format. The arrangement: dose 125 nL, time 70.5 hour; concentration not given beside the values. The series is classed as toxicity, cell-based. The note with it: HepG2 cells, read-out: Inhibition.

Turning to `CC(C)(C)NC(=O)c1ccc(COCC(F)(F)F)o1`, the cytotoxicity at 70.5 h was -4.89%.
Turning to `CCOc1ccc(C(=O)Nc2c(C)nc3ccc(Cl)cn3c2=O)cc1`, the cytotoxicity at 70.5 h was -3.81%.
Regarding `COc1ccc(C(=O)Nc2c(C)nc3cccc(C)n3c2=O)cc1`, the cytotoxicity at 70.5 h was -17.1%.
As for `CN1CC=C(c2noc(CCC(=O)N3CCCC3)n2)CC1`, the cytotoxicity at 70.5 h was 7.74%.
Consider `CN1CC=C(c2noc(CCC(=O)N3CCOCC3)n2)CC1`, for which the cytotoxicity at 70.5 h was -5.23%.
Turning to `Cc1noc2ncnc(N(C)Cc3ccco3)c12`, the cytotoxicity at 70.5 h was -16.7%.
With `COc1cnc(CSc2nnc(C)s2)cc1OCC(=O)NC1CCCC1`, the cytotoxicity at 70.5 h worked out at 2.36%.
On to `Cc1ccc2oc(SCC(=O)NC(C)(C)C)nc2n1`, for which the cytotoxicity at 70.5 h was -6.39%.
Regarding `CC(c1ccncc1)N(CCN(C)C)C(=O)Nc1ccc(Cl)cc1` (stereo not drawn), the cytotoxicity at 70.5 h is -14.7%.
The figure for `Cc1n[nH]c2c1C(c1ccc(Cl)cc1)SCC(=O)N2` (stereo not drawn) is 10.6%.
On to `Cc1n[nH]c2c1C(c1ccc(Br)cc1)SCC(=O)N2` (stereo not drawn), for which the cytotoxicity at 70.5 h is -8.1%.
Turning to `Cc1n[nH]c2c1C(c1ccc(O)cc1)SCC(=O)N2` (stereo not drawn), the cytotoxicity at 70.5 h is -11%.
The figure for `COc1ccc(CN2CCCC2c2cccc(F)c2)c(OC)c1OC` (stereo not drawn) is -6.93%; for `COc1cc(CN2CCCC2c2cccc(F)c2)cc(OC)c1OC` (stereo not drawn) it is -11.4%; for `COc1ccc(NC(=O)N2CCCC2c2ccco2)c(OC)c1` (stereo not drawn) it is 10.8%.
As for `COc1ccc(Cl)cc1NCc1nc2[nH]c(C)c(C)c(=O)n2n1`, the cytotoxicity at 70.5 h is -4.46%.
The figure for `Cc1[nH]c2nc(CNc3cccc(Cl)c3)nn2c(=O)c1C` is -11.7%.
As for `O=C(NC(c1ccccc1)c1cccnc1)C1CC1` (stereo not drawn), the cytotoxicity at 70.5 h was -6.82%.
Turning to `O=C(NC(c1ccc(Cl)cc1)c1cccnc1)C1CC1` (stereo not drawn), the cytotoxicity at 70.5 h was -7.72%.
For `CCOc1ccccc1CNS(=O)(=O)c1ccc2c(c1)CCCC(=O)N2`, the cytotoxicity at 70.5 h is -9.4%.
`CCCc1nnc(SCc2cc(=O)n3c4c(sc3n2)CCCC4)[nH]1`: the cytotoxicity at 70.5 h is -6.9%.
For the molecule `Cc1ccc(NC(=O)c2cnc(N3CCN(C)CC3)nc2C)cc1C`, the cytotoxicity at 70.5 h was -4.49%.
In the case of `Cc1cc(C)cc(NC(=O)c2cnc(N3CCN(C)CC3)nc2C)c1`, the cytotoxicity at 70.5 h is -0.093%.
For `CCC1CN(CC(=O)NCCN2CCCCC2)c2ccccc2S1` (stereo not drawn), the cytotoxicity at 70.5 h is -3.08%.
As for `O=C1COc2cc(S(=O)(=O)NCCC3=CCCCC3)c(Cl)cc2N1`, the cytotoxicity at 70.5 h worked out at 14.7%.
On to `Cc1nc(-c2ccc(S(=O)(=O)N3CCCCC3)cc2)co1`, for which the cytotoxicity at 70.5 h was -8.94%.
Consider `COc1cccc(CNC(=O)Cn2ccc3c(C)nn(C)c3c2=O)c1`, for which the cytotoxicity at 70.5 h is -5.8%.
With `Cc1nn(C)c2c(=O)n(CC(=O)NCCC3=CCCCC3)ccc12`, the cytotoxicity at 70.5 h was -1.87%.
For `CCOc1ccccc1CNC(=O)Cn1ccc2c(C)nn(C)c2c1=O` the value was -5.58%; for `O=C(Cn1ccc2sccc2c1=O)NCCCc1ccccc1`, -9.43%.
With `O=C(Cn1ccc2sccc2c1=O)NCCC1=CCCCC1`, the cytotoxicity at 70.5 h is -8.78%.
Regarding `CCOC(=O)Cn1c(=O)c(OCC)nc2cnccc21`, the cytotoxicity at 70.5 h was -3.59%.
The figure for `CC1=C(c2ccc(C)cc2)S(=O)(=O)N=C1N1CCc2ccccc21` is -5.39%; for `CCOc1nc2cnccc2n(CC(=O)NCc2ccco2)c1=O` it is -10.1%; for `CC(=O)N1N=C(COc2ccc(C)cc2)OC1c1ccc(N(C)C)cc1` (stereo not drawn) it is -6.08%.
Take `COc1ccc(CN2CCCCCC2c2cccs2)c(O)c1` (stereo not drawn): the cytotoxicity at 70.5 h is -7.17%.
Take `Cc1nn(C)cc1CN1CCCCCC1c1ccc(Cl)cc1` (stereo not drawn): the cytotoxicity at 70.5 h amounted to 6.75%.
Turning to `COc1cc(CN2CCCCCC2c2cccs2)cc(OC)c1O` (stereo not drawn), the cytotoxicity at 70.5 h is -2.15%.
`COc1ccc(CN2CCCCCC2c2cccs2)c(OC)c1` (stereo not drawn): the cytotoxicity at 70.5 h was -8.21%.
For `COc1cccc(CN2CCCCCC2c2sccc2C)c1O` (stereo not drawn), the cytotoxicity at 70.5 h is 1.85%.
With `CCCNC(=O)Nc1ccc2c(c1)N(S(=O)(=O)CC)CC2`, the cytotoxicity at 70.5 h is -6.9%.
As for `CCS(=O)(=O)N1CCc2ccc(NC(=O)Nc3cccc(C)c3)cc21`, the cytotoxicity at 70.5 h amounted to 17.9%.
In the case of `CCS(=O)(=O)N1CCc2ccc(NC(=O)NCc3ccccc3)cc21`, the cytotoxicity at 70.5 h was -3.62%.
Take `CCC(C)NC(=O)Cn1ccc2c(C)nn(CC)c2c1=O` (stereo not drawn): the cytotoxicity at 70.5 h is 30.5%.
For `CCn1nc(C)c2ccn(CC(=O)NC3CC3)c(=O)c21`, the cytotoxicity at 70.5 h is -9.78%.
For `COc1cc(N2C[C@H]3CN(CC(=O)N(C)C)C(=O)[C@H]3C2)ncn1`, the cytotoxicity at 70.5 h worked out at 28.2%.
Regarding `CCN1CCC2(CC1)CN(CCO)c1ccccc12`, the cytotoxicity at 70.5 h was determined as 21.2%.
For `O=C(Cc1cccs1)NCC1COCc2c(-c3ccoc3)nnn2C1` (stereo not drawn) the value was -9.17%.
For `CC1c2ncc(COCC3CCCC3)n2CCN1S(=O)(=O)N(C)C` (stereo not drawn) the value was 0.773%.
Take `O=c1ccc2c(n1Cc1cccnc1)CCC(NCc1cccnc1)C2` (stereo not drawn): the cytotoxicity at 70.5 h is -0.912%.
Take `CS(=O)(=O)N1C[C@H](C(=O)Nc2cnccn2)C[C@H]2OCC[C@H]21`: the cytotoxicity at 70.5 h is 24.9%.
For `CCn1cc2c(n1)C(COCC1CC1)CN(C(=O)c1cnoc1C)C2` (stereo not drawn), the cytotoxicity at 70.5 h is -12.8%.
For the molecule `COCc1cnc2n1CCN(S(=O)(=O)N(C)C)C2C` (stereo not drawn), the cytotoxicity at 70.5 h is -15.1%.
Consider `CCOCC1COCCC12CCN(C(=O)CS(C)(=O)=O)CC2` (stereo not drawn), for which the cytotoxicity at 70.5 h was -4.64%.
Consider `Cn1c(C(=O)NC2CC2)nc2c1CCN(c1ncccn1)C2`, for which the cytotoxicity at 70.5 h is -4.38%.
On to `COCC(=O)N1CCC2(CCC2NS(=O)(=O)c2ccccc2)CC1` (stereo not drawn), for which the cytotoxicity at 70.5 h was 28.8%.
As for `CC(C)CNC(=O)[C@H]1C[C@@H]2CN(C(=O)NCC3CCCCC3)C[C@H]1O2`, the cytotoxicity at 70.5 h was -2.13%.
For the molecule `COC[C@@H]1CN(C)C(=O)[C@@H]2CCN(Cc3ccco3)CC[C@H]12`, the cytotoxicity at 70.5 h was -4.9%.
For the molecule `CC(C)n1ccc(-c2cc(C(=O)NC3CC3)c3ccccn23)n1`, the cytotoxicity at 70.5 h was found to be 21.3%.
In the case of `CC(C)N(C)[C@@H]1CCN(Cc2ccco2)[C@H]1Cc1ccccc1`, the cytotoxicity at 70.5 h came to 38.2%.
For `O=C(NCCN1CCCC1)c1nc2c(o1)CN(c1ncccn1)C2` the value was -1.07%; for `CCc1cnc(N2CCC3(CCN(CC)C3=O)CC2)nc1`, -4.14%.
`CCCNC(=O)c1cc(-c2ccn(C(C)C)n2)n2ccccc12`: the cytotoxicity at 70.5 h is -7.13%.
`CCCNC(=O)c1nc2c(o1)CN(c1ncccn1)C2`: the cytotoxicity at 70.5 h is -2.16%.
As to `CN(C)C(=O)[C@H]1CC[C@@H]2[C@@H](CCN2C(=O)N(C)C)O1`, the cytotoxicity at 70.5 h was 1.41%.
For the molecule `O=C(C1CCCCC1)N1CCC2(CC1)CNCc1ccccc12`, the cytotoxicity at 70.5 h is 0.691%.
Take `CC(C)C(=O)N1CCC2(CC1)NC(=O)c1ccccc12`: the cytotoxicity at 70.5 h is -2.39%.
As for `O=C(NCC1CCC2(CCNCC2)CO1)c1ccno1` (stereo not drawn), the cytotoxicity at 70.5 h stood at 3.09%.
In the case of `O=C([C@@H]1COC[C@H]2CN(CC3CC3)C[C@H]21)N1CCC(F)CC1`, the cytotoxicity at 70.5 h worked out at 32.5%.
In the case of `CC[C@@H]1N(CC2CCOCC2)CCC[C@]12CCC(=O)N2`, the cytotoxicity at 70.5 h was -6.16%.
For the molecule `Fc1ccccc1CO[C@@H]1C[C@H]2CN(c3ncccn3)CCN2C1`, the cytotoxicity at 70.5 h was 4.66%.
Turning to `CN(C)Cc1cnc2n1CCN(C(=O)NC1CCCC1)CC2`, the cytotoxicity at 70.5 h is -1.58%.
For `CN1CCO[C@@H]2CN(C(=O)COc3cccc(Cl)c3)C[C@@H]2C1` the value was 4.28%; for `CN1C[C@@H](COCC2CC2)[C@H]2CCN(Cc3ccco3)CC[C@H]2C1=O`, -5.7%.
For `CN(C)C(=O)N1CC[C@H]2[C@H]1CCN2c1nncs1` the value was -6.13%.
As to `CCOCC(=O)N1CCc2c(CN(C)C)nn(C(C)C)c2C1`, the cytotoxicity at 70.5 h was -4.01%.
Consider `COC[C@H]1CN(CC2CC2)C(=O)[C@@H]2CCN(Cc3ccoc3)CC[C@H]12`, for which the cytotoxicity at 70.5 h is -4.84%.
Regarding `CN(C)Cc1cnc2n1CCN(C(=O)Cc1ccc(F)cc1)CC2`, the cytotoxicity at 70.5 h was -1.54%.
Regarding `O=S1(=O)NCC2(CCN(c3ncccn3)CC2)COc2ccccc21`, the cytotoxicity at 70.5 h worked out at 47.5%.
Consider `O=C(CC1CCCC1)N1CC[C@H]2[C@H]1CCN2c1nncs1`, for which the cytotoxicity at 70.5 h turned out to be 19.9%.
For `O=S(=O)(C1CC1)N1CCc2onc(COc3ccccn3)c2C1` the value was 34.6%; for `Cc1cccc(N2CCC3(CCCC(=O)N3)CC2)n1`, -0.82%.
Consider `Cc1ccc(N2CCCC3(CCCC(=O)N3)C2)nn1` (stereo not drawn), for which the cytotoxicity at 70.5 h is -5.66%.
For the molecule `Cc1cnc(N2CCN(C)c3ncccc3C2)nc1`, the cytotoxicity at 70.5 h amounted to 4.51%.
For the molecule `COCC1CN(S(=O)(=O)c2ccc(C)cc2)Cc2c1cnn2C` (stereo not drawn), the cytotoxicity at 70.5 h stood at 7.58%.
With `c1cc(C2CC2)n2cnc(C3CN(Cc4nccs4)CCO3)c2c1` (stereo not drawn), the cytotoxicity at 70.5 h was -1.41%.
Consider `COCC1CN(S(=O)(=O)Cc2ccccc2)Cc2c1cnn2C` (stereo not drawn), for which the cytotoxicity at 70.5 h was -1.14%.
Regarding `CCS(=O)(=O)N1CCc2onc(COc3ccccn3)c2C1`, the cytotoxicity at 70.5 h was -3.32%.
Take `c1nc2c(c(NC3CCC3)n1)CCNCC2`: the cytotoxicity at 70.5 h was -2.44%.
Turning to `COCC1CN(C(=O)COc2ccccc2)Cc2ncn(C)c21` (stereo not drawn), the cytotoxicity at 70.5 h is -0.249%.
For the molecule `c1ccc(OCc2noc3c2CN(c2ncccn2)CC3)nc1`, the cytotoxicity at 70.5 h was -6.14%.
On to `CCN1CCCC12CCN(Cc1cccnc1OC)CC2`, for which the cytotoxicity at 70.5 h was -4.58%.
As to `c1ccc(CO[C@@H]2C[C@H]3CN(c4ncccn4)CCN3C2)nc1`, the cytotoxicity at 70.5 h was -7.06%.
For `COCCN1CCO[C@@H]2CN(Cc3ccccc3OC)C[C@@H]2C1` the value was -0.773%.
As for `COCCN1CCC2(CC1)CC(NCc1cncn1C)c1ccccc12` (stereo not drawn), the cytotoxicity at 70.5 h came to 1.8%.
On to `O=C(NC1CC2(CCN(CCO)CC2)c2ccccc21)c1ccncc1` (stereo not drawn), for which the cytotoxicity at 70.5 h was -5.59%.
With `COCCN1CCO[C@@H]2CN(Cc3ccc(C)s3)C[C@@H]2C1`, the cytotoxicity at 70.5 h was -2.59%.
Turning to `Cn1cc(CNC2CC3(CCN(CC4CC4)CC3)c3ccccc32)cn1` (stereo not drawn), the cytotoxicity at 70.5 h is -2.11%.
